Consider one compound from patent publication US6433007B1, “Methods for the prevention and treatment of post-surgical complications” (Alcon Manufacturing, Ltd., priority 1998, dated 2002).

For this assay, the system named is vitrectomy-induced PSC formation. The assay can be described thus: Post-vitrectomy posterior subcapsular cataract (PSC) formation in Dutch Belted rabbits, surgical irrigating solution. The class given is in vivo, Dutch Belted rabbit. The note with it: for Incidence of Lens Line Suture Distortion: irrigating solution w/1.0 μM Compound X, rabbit, affected lenses/total lenses. The procedure:
The following example illustrates the reduction in frequency of post-vitrectomy cataract formation, employing a surgical irrigating solution containing a compound of formula (I).
Age-matched, Dutch Belted rabbits were used in this study. At 2.5 months of age, unilateral, partial vitrectomy (vitreous replaced by irrigating solution) was performed. Briefly, rabbits (1.5-2.0 kg) were prepared for surgery by subcutaneous administration of atropine to maintain heart rate and limit lung and oropharynx fluid accumulation. Animals were then anesthetized by intramuscular administration of ketamine (45 mg/kg) and xylazine (6 mg/kg). Anesthesia was maintained by re-administration of half-doses of anesthetic every 35-45 minutes as needed. For pupil dilatation, phenylephrine HCL and cyclopentolate HCL were administered topically to the surgical eye (OD). The nonsurgical eye (OS) received Duratears and was then taped shut to prevent loss of moisture. Immediately prior to surgery, proparacaine was administered topically to the OD eye and a speculum inserted. […] Two sutures were placed in a figure eight (4 and 8 o'clock position), about 4.5 mm from the limbus, to accommodate the outer port suction cutter and endoilluminator, respectively. An inner port infusion cannula was sutured through the pars plana (6 o'clock position) about 4 mm from the limbus. Two additional punctures were made with a V-lance stiletto knife (20 gauge) for the instrument entry through the outer ports. Two sutures were then placed (3 and 9 o'clock position) in the sclera, approximately 1 mm from the limbus, to facilitate manipulation of the eye and to secure the metal contact lens holder. Viscoat® (125 μL) was then applied to the cornea followed by the placement of a wide angle lens onto the cornea. The vitreous was then removed using the SERIES TEN THOUSAND® OCUTOME® posterior-segment surgical system for 10 minutes by a combination of cutting (500 cuts/minute) and suction (90 mm Hg), while continually supplying BSS® or BSS Plus® irrigating solution, or an irrigating solution containing Compound X (1.0 μM) (at room temperature), at a rate of approximately 3.5 mL/minute and an ocular fluid pressure of 35 mm Hg. Upon completion of the surgery, instruments were withdrawn, infusion pressure reduced to 22 mm Hg, sclerotomies closed, and the conjunctiva reapproximated at the limbus with sutures. A typical surgical procedure required approximately 40-50 minutes, utilizing approximately 100 mL of irrigation solution. The amount of vitreous replaced was approximately 1.5 mL. At various times following vitrectomy, lenses were excised and immediately examined by low resolution light microscopy. Photographs were taken with a digital camera for a later assessment of line suture defects.
The results of this study document the early development of PSC in the Dutch Belted rabbit following vitrectomy, as quantified by scoring for the presence of distorted suture branches and sub-branches. […] Comparison of the effect of vitrectomy with standard irrigation and the Compound X-supplemented irrigation 3 month post-surgery indicated a high incidence of an acute distortion of normally straight line sutures for animals of the standard irrigation treatment groups (Table 1) but not the Compound X treated animals. […] This abnormal condition was further aggravated at […] post-vitrectomy, as recognized by the extension of existing sub-branches and the development of additional small sub-branches. […] This condition was essentially maintained throughout twelve months post-vitrectomy.
In contrast, 86% (or 6 out of 7 lenses) of the lenses from the Compound X treatment group were unaffected by vitrectomy with an average suture defect score of +1.7 at this same time point. The lens scores of animals treated with the Compound X supplemented therapeutic irrigation solution were essentially identical to those of naive controls (scoreavg=+1.63). […]

Take `COc1ccc2cc([C@H](C)C(=O)OCC[C@@]3(C)CCc4c(C)c(O)c(C)c(C)c4O3)ccc2c1` [Compound X, (S)-6-methoxy-[…]-methyl-naphthaleneacetic acid, (R)-2-(3,4-dihydro-6-hydroxy-2,5,7,8-tetramethyl-2H-1-benzopyran-2-yl)ethyl ester]: the “rate of lens growth” value (3-12 months post-surgery, compared to naive controls, 1.0 μM in irrigating solution during vitrectomy) is given as “essentially identical to that of naive controls”. Besides, the “Incidence of Lens Line Suture Distortion” value is, setting by setting: (3 month post-Vitrectomy) 0/8; (6 month post-Vitrectomy) 1/7; (12 month post-Vitrectomy) 1/7. Moreover, where the note is “12 months post-vitrectomy, 6 out of 7 lenses, 1.0 μM in irrigating solution”, the “lenses unaffected by vitrectomy” value came to 86%. Moreover, the “average suture defect score” value (12 months post-vitrectomy, scale 0 (straight line suture) to +6 (very crooked suture pattern with many sub-branches or mature cataract), naive controls +1.63) is “+1.7”. In addition, the “lens suture appearance (distortion, sub-branches)” value (six months post-surgery, essentially maintained throughout twelve months post-vitrectomy, low resolution light microscopy) was “only slightly distorted suture branches which, on average, were devoid of sub-branches”.
